From US20230103444A1 (The Regents of the University of Colorado, a Body Corporate, priority 2020, published 2023)
“Also recorded” adds a separate entry of the source. Like-named read-outs stand apart in the source and are kept apart here.

Legend:
[1] = Mouse liver microsome stability; details: CD-1, mouse, liver microsomes; for half-life: female, initial study
Method: Microsome stability. CD-1 mouse microsomes were commercially purchased and the reactions were performed as previously described. […] The master mix was pre-incubated at 37° C. for 5 min, then 1 mM NADPH was added to start the microsomal activity reaction and maintained at 37° C. throughout the time course. Reactions were stopped at 0, 5, 15, 30, 45, and 60 min by adding 200 μL acetonitrile and analyzed by mass spectrometry. The appropriate microsome controls were also performed in the same reaction conditions.

[2] = test system: HCT-116 and DLD1CHD1L-OE cells; experiment: Clonogenic colony formation after 24 h pretreatment (CSC stemness); type: cell-based, human; details: colonies over 10 days
Method: To assess CHD1L inhibitors for their ability to suppress CSC stemness, HCT-116 or CHD1L overexpressing DLD1 cell lines were pre-treated in monolayer cultures for 24 h with vehicle control (0.5% DMSO) or CHD1L inhibitors at the concentrations indicated in FIG. 2C. Pretreated viable cells were plated at 1,000 cells/well in 6-well plates or 200 cells/well in a 24-well plates. Colonies were analyzed using the IncuCyte® S3 2018A (Sartorius, France) software (with the following parameters modified from default: (1) for HCT116 cells segmentation adjustment=0.6; Min area (μm2)=3×104; Max area (μm2)=1.6×106; Max eccentricity=0.9; (2) for DLD1CHD1L OE cells segmentation adjustment=1; Min area (μm2)=1×104; Max area was not constrained; Max eccentricity=0.95. Experiments were replicated 2× (n=2 for each experiment).

SW620 tumor organoids [3] = experiment: Synergy studies with SN38 (LOEWE synergy scores); type: cell-based, human; design: key to LOEWE Synergy Score: % response beyond expectation; <-10 antagonism, -10–10 additive, >10 synergy; details: for LOEWE Synergy Score: compound at its IC50 (6: 5 μM; 6.3, 6.11: 3 μM)
Method: Cell based cytotoxicity dose response and combination studies. […] Plates were then incubated for 3 days before treatment.
(e.g., synergy score 20 corresponds to 20% of response beyond expectation). According to our experience, the synergy scores near 0 gives limited confidence on synergy or antagonism.
When the synergy score is: • Less than −10: the interaction between two drugs is likely to be antagonism; • From −10 to 10: the interaction between two drugs is likely to be additivity; • Larger than 10: the interaction between two drugs is likely to be synergy.

[4] = test system: E-cadherin promoter activity; experiment: EcadPro-RFP reporter 3D high-content imaging in tumor organoids; type: cell-based; details: 72 h; for EC50: Homo sapiens, SW-620, read-out: EC50 upregulation of E-cadherin promoter activity, SW620 tumor organoids
Method: After validating hits 5-7 against CHD1L mediated TCF transcription, the ability of these compounds to reverse EMT and other malignant properties in CRC were evaluated. E-cadherin and vimentin are putative biomarkers for the epithelial and mesenchymal phenotypes, respectively. [McDonald et al., 2015] Loss of E-cadherin and gain of vimentin are also clinical biomarkers of poor prognosis. [Yun et al., 2014; Richardson et al., 2012; Dhanasekaran et al., 2001; Kashiwagi et al., 2010; Toiyama et al., 2013] Accordingly, lentiviral promoter driven reporters for E-cadherin (pCDH1-EcadPro-RFP) and vimentin (pCDH1-VimPro-GFP) were developed, which faithfully report E-cadherin and vimentin protein expression, respectively. [Zhou et al., 2016; Abraham et al., 2019] SW620 cells transduced with either EcadPro-RFP or VimPro-GFP were cultured as tumor organoids for 72 h, reaching a diameter of 600 μm. Tumor organoids were treated with compounds 5-7 for an additional 72 h to determine the effective concentration 50 percent (EC50) for modulating promoter activity. Changes in promoter expression was quantified using a 3D confocal image […] based high-content analysis algorithm (FIG. 2A-2B). [Zhou et al., 2016; Abraham et al., 2019]
CHD1L has been reported to confer anti-apoptotic activity by inhibiting activation of caspase-dependent apoptosis. [Li et al., 2013; Sun et al., 2016] Additionally, reversal or inhibition of EMT is known to restore apoptotic activity of cancer cells. [Lu et al., 2014] To determine if CHD1L inhibitors reverse EMT prior to induction of cell death, E-cadherin expression by EcadPro-RFP reporter activity was monitored and cytotoxicity was measured using the CellTox™ Green assay. Cells were treated with CHD1L inhibitors for 72 h and imaged every 2 h.
Stable VimPro-GFP or EcadPro-RFP SW620 reporter cells were generated using pCDH imPro-GFP-EF1-puro virus or pCDH-EcadPro-mCherry-EF1-puro virus as previously reported. [Zhou et al., 2016; Abraham et al., 2019] The stable fluorescently labeled reporter cells were used to generate tumor organoids as described herein. Tumor organoids were treated with CHD1L inhibitors at 10 μM for an additional 72 h. Following treatment, tumor organoids were stained with 16 μM of Hoechst 33342 for 1 h (nuclei stain). Images were taken with a 5× air objective. Z-stacks were set at 26.5 μm apart for a total of 15 optical slices. Imaging and high-content analysis were performed using an Opera Phenix™ and Harmony® software (PerkinElmer, Hopkinton, Mass.). Nuclei were identified within each layer and cells were found with either GFP or mCherry channel. The fluorescence intensities of each channel were calculated and thresholds were set based on the background intensities. Percentages of GFP or mCherry RFP positive cells were calculated and normalized to the DMSO treated group.
3D High-Content Imaging and Analysis of EMT Dual-Reporter Activity. Tumor organoids were imaged using the Opera Phenix high-content screening system (PerkinElmer) in confocal mode utilizing a 10× air objective (NA 0.3). The following excitation and emission (Ex/Em) wavelengths were employed: RFP (561/570-630) and GFP (488/500-550). Organoids were also imaged in Brightfield to segment and perform high-content analysis of dual reporter specific fluorescence intensity. RFP fluorescent signal correlates with E-Cadherin promoter activity, while GFP fluorescent signal is correlates with vimentin promoter activity. Both fluorescent signals were quantified and normalized as previously described. (Esquer, et al., 2021)

SW620 tumor organoids [5] = experiment: Tumor organoid cytotoxicity (CellTiter-Glo 3D); details: Homo sapiens
[6] = SW-620, read-out: Tumor Organoid Cytotoxicity IC50 (μM) SW620

Cc1cc(Nc2ccc(NC(=O)Cc3cccs3)cc2)nc(N2CCCC2)n1 [Compound 6, N-(4-((6-methyl-2-(pyrrolidin-1-yl)pyrimidin-4-yl)amino)phenyl)-2-(thiophen-2-yl)acetamide]
half-life ([1]; Microsomal Half-life (min), female CD-1 mouse microsomes): 17 min
half-life ([1]; half-life in liver microsomes): < 20 min
inhibition of CSC stemness (clonogenic colony formation), in words ([2]; listed as 6.0): more potent dose dependent inhibition; also recorded: significantly inhibits CSC stemness
LOEWE Synergy Score (SW620 tumor organoids [3]; SN38 0.64 nM): −5
LOEWE Synergy Score (SW620 tumor organoids [3]; SN38 16 nM): 35
LOEWE Synergy Score (SW620 tumor organoids [3]; SN38 80 nM): 45
LOEWE Synergy Score (SW620 tumor organoids [3]; SN38 400 nM): 41
LOEWE Synergy Score (SW620 tumor organoids [3]; SN38 2000 nM): 28
LOEWE Synergy Score (SW620 tumor organoids [3]; SN38 10000 nM): 16
LOEWE Synergy Score (SW620 tumor organoids [3]; SN38 […]): 36
synergism with irinotecan (and SN38), in words (SW620 tumor organoids [3]; killing SW620 tumor organoids): synergism
E-cadherin expression before onset of cytotoxicity ([4]; EcadPro-RFP reporter and CellTox Green, imaged every 2 h, relative to DMSO): significant increase in E-cadherin expression prior to induction of cytotoxicity
EC50 [4]: 11.4 ± 0.3 µM
IC50 (SW620 tumor organoids [5]; [6]): 4.6 µM

COc1ccc(-c2nc(S(=O)(=O)c3ccccc3)c(S(C)(=O)=O)o2)cc1 [Compound 5]
inhibition of CSC stemness (clonogenic colony formation), in words [2]: more potent dose dependent inhibition
EC50 [4]: 11.9 ± 0.3 µM

Cc1cc(Nc2ccc(NC(=O)c3c[nH]c4ccccc34)cc2)nc(N2CCCC2)n1 [Compound 6.3, N-(4-((6-methyl-2-(pyrrolidin-1-yl)pyrimidin-4-yl)amino)phenyl)-1H-indole-3-carboxamide]
half-life at 10 μM ([1]; pH 7.4, in vitro liver microsome half-life, second series, different liver microsome preparation): 98 min
inhibition of CSC stemness (clonogenic colony formation), in words [2]: significantly inhibits clonogenic colony formation
LOEWE Synergy Score (SW620 tumor organoids [3]; SN38 0.64 nM): 4
LOEWE Synergy Score (SW620 tumor organoids [3]; SN38 16 nM): 36
LOEWE Synergy Score (SW620 tumor organoids [3]; SN38 80 nM): 54
LOEWE Synergy Score (SW620 tumor organoids [3]; SN38 400 nM): 48
LOEWE Synergy Score (SW620 tumor organoids [3]; SN38 2000 nM): 35
LOEWE Synergy Score (SW620 tumor organoids [3]; SN38 10000 nM): 25
LOEWE Synergy Score (SW620 tumor organoids [3]; SN38 […]): 31
potency of SN38 combination relative to SN38 alone (SW620 tumor organoids [3]; killing SW620 tumor organoids): 150 fold
synergism with irinotecan (and SN38), in words (SW620 tumor organoids [3]; killing SW620 tumor organoids): synergism
upregulation of E-cadherin promoter activity (EcadPro-RFP), in words ([4]; SW620 or HCT116 tumor organoids): upregulation of E-cadherin promoter activity
IC50 (SW620 tumor organoids [5]; SW-620, 72 h, read-out: 3 D Cytotoxicity 72 hr IC50 (μM) SW620): 3.6 µM
IC50 (SW620 tumor organoids [5]; [6]): 3.8 µM
